Laboratory results from patent US20230364196A1, “METHODS FOR TREATING GRAFT-VERSUS-HOST DISEASE USING GLP-2 AGONISTS AND ANALOGUES THEREOF” (THE TRUSTEES OF COLUMBIA UNIVERSITY IN THE CITY OF NEW YORK, priority 2021, published 2023).
“Also recorded” adds a separate entry of the source.

Legend:
Type in all cases: in vivo, mouse
healthy BALB/c mice = test: Escalating elsiglutide doses in healthy mice (no irradiation or transplant)
Method: In this experiment elsiglutide at escalating doses (200-800 nmol/kg/d) was injected to healthy mice without irradiation or chemotherapy for 10 days.
In this experiment we also performed Ki67 stains to document the proliferation of crypt cells in response to elsiglutide (FIG. 7). In healthy mice treated with vehicle Ki67 immunoreactivity was predominantly confined to the crypts where the stem cells reside.

[1] = test system: BALB/C mice, syngeneic transplant; test: Innate immune cells of the lamina propria after syngeneic transplant; details: for recovery of mature (P4) lamina propria macrophages: D+7, vs vehicle
Source text: To assess the impact of GLP-2 on macrophage maturation in the absence of inflammatory GVHD, BALB/C mice were transplanted with T-cell depleted bone marrow from BALB/C donors and given daily S.C. injections of GLP-2 as mentioned above. […] P1-P4 macrophages were gated as CD45+CD19^−CD3-Ly6G^− and CD11b^+ or CD11c^+. Subsets of the “monocyte-waterfall” were gated as: P1: CD64^−/low Ly6C^+MHC II^− CX3CR1^−/low; P2: CD64^low/+Ly6C^+ MHC II^+ CX3CR1^−/low; P3: CD64^+ Ly6C^−MHC II^+ CX3CR1^−/low; P4: CD64^+Ly6C^−MHC II^+ CX3CR1^+. N=4 per treatment group.
Daily subcutaneous injection of GLP-2 increases the relative abundance of lamina propria ILCs in a process that appears to target type-3 ILCs (ILC3s). ILC3s are important immunomodulators of the lamina propria and intestinal stem-cell (ISC) niche via their production of IL-22, playing a role in ISC maintenance. […] ILCs were gated as CD45^+ CD19^− CD3^− Ly6G^− CD11b^− CD11c^− CD127^+, with subsets being assigned based on Tbet (ILC1), GATA-3 (ILC2) and RORgt (ILC3) expression.

[2] = test system: major MHC mismatched allogeneic transplant mice; test: Mechanistic study in major MHC-mismatched allogeneic transplant (flow cytometry/histology of organs, serum cytokines); details: for proportion of Th1 and CD8+ T-cells expressing T-bet (intraepithelial, small intestine): 800 nmol/kg daily subcutaneous; for engraftment of hematopoietic stem cells / donor cells in the spleen: post-transplant elsiglutide vs vehicle, D7
Source text: BALB/C mice underwent lethal TBI. (850 cGy Cs137) and transplantation with 5×10^6 T-cell depleted bone marrow cells and 1×10^6 splenic T-cells from B6 donors (major MHC-mismatch model).
To further explore the mechanism behind the treatment effect observed in Example 4, we used the same experimental design as Example 4. […]

[3] = test system: major MHC-mismatched GVHD model, BALB/c mice; test: GVHD prevention after allogeneic HSCT with lower T-cell dose (0.5×10^6 splenic T cells)
Source text: (§1) To determine the effect of elsiglutide treatment on graft-versus-host disease in MHC-mismatched (allogeneic) murine hematopoietic stem-cell transplantation and identify the optimal dosing schedule, in this experiment BALB/c mice were lethally-irradiated and transplanted with bone marrow (5×10^6 cells) from B6 mice plus 2×10^6 splenic T-cells and treated with 800 nmol/kg/d elsiglutide at 4 different treatment schedules (syngeneic transplant and allogeneic transplant with vehicle were used as controls).
In a subsequent experiment, we used the same design as Example 3 but with T-cell depleted (TCD) bone marrow (BM) cells (5×10^6 cells) and a lower T-cell dose (0.5×10^6 splenic T cells) to allow examination of survival differences in a major MHC-mismatched GVHD model (aggressive GVHD model). As treatment effect was similar in this experiment for groups 3-4 and 5-6, these groups were combined into an “elsiglutide pre-transplant” group and an “elsiglutide post-transplant” group for presentation. In addition, animals originally designated to end treatment on D4 resumed treatment on D9 and continued until D30 or SAC. This time, the administration of elsiglutide beginning on D1 post-transplantation rescued 100% of mice from lethal GVHD along with improvement in GVHD scores and weight. […] Control mice (allogeneic transplant with vehicle control) had 100% mortality as expected and syngeneic control mice had 100% survival as expected (FIG. 10). This further supports the hypothesis that the timing of administration of the drug (post- vs. pre-radiation conditioning) is critical.

intestinal microbiota = test: Intestinal microbiota by 16S rRNA sequencing of stool after lethal TBI and syngeneic transplantation
Method: Mice undergoing lethal TBI were treated with daily S.C. injections with Elsiglutide (GLP-2) and their stool collected for 16s rRNA sequencing on D+0 (baseline), D+14 and D+28 post-transplant.
To assess potential mechanisms for the differences in macrophage and T-cell phenotype, we examined the impact of GLP-2 on the intestinal microbiota. A syngeneic BALB/cJ model (similar to Example 1) was used to explore the effects of GLP-2 independent of GVHD. Stool samples from D+0, D+14, and D+28 were subjected to 16S rRNA sequencing. Vehicle-treated mice had distinct […] clusters at all time-points, showing a transplant effect on the microbiota (FIG. 28A). […] These taxa have been associated with anti-inflammatory properties and A. muciniphila abundance is linked to epithelial mucin production, which is increased by GLP-2.

[4] = test system: BALB/c syngeneic transplant recipients after high-dose lethal radiation; test: Syngeneic transplant after high-dose lethal radiation, different elsiglutide treatment schedules; details: for apoptotic bodies within the crypts (TUNEL stain): D4 after radiation
Method: This experiment was carried out to determine the effect of daily elsiglutide administration (800 nmol/kg) on weight recovery and bowel weight in response to high dose radiotherapy using different treatment schedules. Syngeneic transplant was performed to rescue the animals from early death due to hematopoietic failure to be able to examine the mice at several time points. […] Treatment with elsiglutide increased small bowel mass after irradiation and syngeneic transplant. The longer the treatment the more pronounced the effect.
TUNEL stain was then performed to assess apoptosis of intestinal epithelial cells on D4 after radiation. We observed a small number of apoptotic bodies within the crypts of all mice at D4 post irradiation and transplantation (FIG. 4).

[5] = test system: BALB/C mice, lethal TBI and allogeneic transplantation; test: Cage conditions experiment in allogeneic transplant (co-housed, separate, separate plus antibiotics); details: caged separately plus antibiotics D-2 to D+14; listed as GLP-2
Source text: BALB/C mice underwent lethal TBI and allogeneic transplantation were assigned to 3 cage conditions to perturb their microbial composition: 1) vehicle and GLP-2 treated animals housed together, 2) treatment groups housed separately or 3) treatment groups housed separately and provided with neomycin and polymyxin-b in their drinking water from D-2 to D+14 post-transplant.
We then assessed the role of microbial communities in the protective effect of GLP-2 by conducting an allogeneic transplant with 3 caging conditions; 1) vehicle and GLP-2 treated mice caged together, 2) caged separately, or 3) caged separately plus oral antibiotics.

[6] = test system: graft-versus-host disease in lethally-irradiated BALB/c mice transplanted from B6 mice; test: GVHD prevention after major MHC-mismatched allogeneic HSCT (2×10^6 splenic T-cells); details: 800 nmol/kg/d
Source text: as §1

[7] = D+21 post-transplant, listed as Elsiglutide
[8] = post-transplant elsiglutide, allogeneic transplant

Q: For elsiglutide, which “Ki67 staining, difference between doses” value (healthy BALB/c mice; 200-800 nmol/kg/d) is on record?
A: no obvious difference

Q: And the “total body weight over baseline” value (healthy BALB/c mice; 200-800 nmol/kg/d for 10 days, unirradiated)?
A: enhanced; also recorded: dose-dependent weight increase

Q: And the “weight of small and large bowel” value (healthy BALB/c mice; 200-800 nmol/kg/d, by day 10)?
A: enhanced; also recorded: dose-dependent increase

Q: What about the “Ki67 proliferation staining of crypt cells” value (healthy BALB/c mice; vs vehicle-treated healthy mice) of the same substance?
A: extended further out of the crypts into the villi

Q: What about the ILC3 [1] of the same substance?
A: significant increase

Q: And the “recovery of mature (P4) lamina propria macrophages” value [1]?
A: improved recovery

Q: And the “recovery of mature (P4) lamina propria macrophages” value ([1]; listed as GLP-2)?
A: increased shift

Q: What about the “recovery / relative abundance of lamina propria ILCs” value ([1]; D+14) of the same substance?
A: improved

Q: And the “recovery / relative abundance of lamina propria ILCs” value ([1]; D+14, listed as GLP-2)?
A: increases

Q: And the “proportion of Th1 and CD8+ T-cells expressing T-bet (intraepithelial, small intestine)” value [2]?
A: lower proportion

Q: What about the “proportion of Th1 and CD8+ T-cells expressing T-bet (intraepithelial, small intestine)” value ([2]; listed as Elsiglutide) of the same substance?
A: reduced

Q: What about the “interferon gamma in the serum” value ([2]; D+21 after transplant, vs vehicle) of the same substance?
A: lower levels

Q: And the “co-stimulatory molecules and SIRPα on lamina propria macrophages” value ([2]; D+21 post-transplant)?
A: reduced expression of co-stimulatory molecules and increased SIRPα

Q: And the “lamina propria macrophages with tolerogenic/mature phenotype (higher CX3CR1, SIRP-alpha; lower CD80, CD86, CD206)” value ([2]; D+21 post-transplant)?
A: increase

Q: What about the “Ly6C^high MHC-II^low immature macrophages” value [2, 7] of the same substance?
A: decrease; also recorded: significant reduction

Q: And the “lamina propria macrophages with tolerogenic/mature phenotype (higher CX3CR1, SIRP-alpha; lower CD80, CD86, CD206)” value [2, 7]?
A: increased prevalence

Q: And the “recovery of innate lymphoid cell (ILC) subtypes in lamina propria” value ([2]; allogeneic setting, D+14 post-transplant)?
A: did not enhance recovery of any ILC subtype

Q: And the T-cell activation ([2]; day 7 after transplant)?
A: reduced

Q: And the “engraftment of hematopoietic stem cells / donor cells in the spleen” value [2]?
A: did not impair

Q: What about the “engraftment of hematopoietic stem cells / donor cells in the spleen” value ([2]; listed as elsigltide) of the same substance?
A: comparable engraftment

Q: And the body weight loss [2, 8]?
A: absence of weight loss

Q: And the “small bowel mass and length” value [2, 8]?
A: increase

Q: What about the “lung inflammation, macroscopic assessment (1×)” value ([2]; vs allogeneic transplant mice with vehicle) of the same substance?
A: fewer areas of inflammation and healthier appearing lung tissue

Q: And the “CD44 expression on gut T-cells” value ([2]; vs vehicle)?
A: higher

Q: And the “expression of adhesion molecules on gut lamina propria T-cells (CD103 on CD4 T-cells)” value ([2]; vs vehicle)?
A: decreased; also recorded: lower

Q: And the “lung infiltrates and alveolar wall thickening (20×)” value ([2]; vs vehicle)?
A: decreased infiltration and less alveolar wall thickening

Q: And the “CD3+ T-cell infiltration in colon and small bowel (immunohistochemistry)” value ([2]; vs vehicle treated mice)?
A: decreased T-cell infiltration with more focal and less diffuse pattern of infiltration and fewer intraepithelial T-cells

Q: What about the “T-EMRA cells in CD4 and CD8 T-cells, IEL and LPL” value ([2]; vs vehicle-treated mice) of the same substance?
A: fewer

Q: What about the “alveolar diameter and alveolar wall thickness” value ([2]; vs vehicle-treated mice) of the same substance?
A: decreased inflammation and alveolar damage

Q: What about the “inflammation in the liver portal triads” value ([2]; vs vehicle-treated mice, 20× magnification) of the same substance?
A: decreased inflammation

Q: What about the “GVHD scores and weight” value ([3]; elsiglutide beginning on D1 post-transplantation) of the same substance?
A: improvement

Q: What about the “mice rescued from lethal GVHD” value ([3]; elsiglutide beginning on D1 post-transplantation, through day 35) of the same substance?
A: 100%

Q: What about the “mice surviving long term” value ([3]; post-transplant elsiglutide group, after discontinuation of treatment (day 30)) of the same substance?
A: 50%

Q: What about the “GVHD scores and weight in surviving mice” value ([3]; pre-transplant elsiglutide) of the same substance?
A: still had an effect

Q: And the “mice rescued from death” value ([3]; pre-transplant elsiglutide, through day 35)?
A: 40%

Q: What about the “abundance of Bacteroidales S24-7 family” value (intestinal microbiota; D+14 and D+28) of the same substance?
A: significantly enriched

Q: And the “abundance of Akkermansia muciniphila” value (intestinal microbiota; D+14 and D+28, listed as GLP-2)?
A: significantly enriched; also recorded: increased

Q: And the “β-diversity of stool microbiota by D+28” value (intestinal microbiota; continual treatment)?
A: shifts in β-diversity

Q: And the “β-diversity clusters of stool microbiota, D+0 vs D+14” value (intestinal microbiota; daily S.C. injections, listed as GLP-2)?
A: near-complete cluster overlap; also recorded: overlap between D+0 and D+14 samples

Q: What about the “weight recovery after high dose radiotherapy” value ([4]; 800 nmol/kg daily, several treatment schedules) of the same substance?
A: without a clear effect

Q: What about the “weight recovery after radiation” value ([4]; 800 nmol/kg daily, treatment start on D-3) of the same substance?
A: slightly worse than other schedules

Q: What about the “small bowel mass after irradiation and syngeneic transplant” value ([4]; 800 nmol/kg daily, longer treatment more pronounced) of the same substance?
A: increased

Q: What about the “apoptotic bodies within the crypts (TUNEL stain)” value ([4]; pre-transplant treated animals (D-7), vs vehicle) of the same substance?
A: increased abundance of apoptotic bodies

Q: And the “apoptotic bodies within the crypts (TUNEL stain)” value ([4]; treatment D-7 to D-3 then resumed on D1)?
A: very few apoptotic bodies

Q: And the “apoptotic bodies within the crypts (TUNEL stain)” value ([4]; treatment beginning D1 post-transplant)?
A: almost no apoptotic bodies

Q: And the “villi length and crypt depth (histology, distal small bowel)” value ([4]; after radiation, longer courses most pronounced)?
A: enhanced

Q: And the “effect of oral antibiotics (neomycin and polymyxin-b) on the survival benefit of treatment” value [5]?
A: dampened the beneficial effect; also recorded: reduced the efficacy

Q: What about the “small bowel weight and length” value ([6]; 4 treatment schedules, p<0.0001, not dependent on schedule) of the same substance?
A: increase

Q: And the GVHD outcome ([6]; 2×10^6 T-cell dose, all mice except 1 from −D3-D4 group, euthanized by D8)?
A: developed severe GvHD by D6
